Assay results taken from patent US20170119034A1, “COMPOSITIONS AND METHODS FOR MODIFYING PERCEPTION OF SWEET TASTE” (University of Florida Research Foundation, Inc., priority 2012, published 2017).

What was measured:
[1] = test system: tomato flavor intensity (consumer panel); assay: Tomato consumer taste panel: overall tomato flavor intensity (gLMS) versus fruit chemical content; type: in vivo, human; conditions: for association with tomato flavor intensity: volatiles with high odor unit values; for association with flavor intensity: univariate models
Procedure: (§1) Sensory analysis. Fully ripe fruit were harvested, and used for taste panels. A random subset of fruit was used for biochemical analysis. Three biological replicates, each consisting of 2-20 fruit (depending on fruit size), were assayed for each variety. […] Panelists were between the ages of 18 and 78 with a median age of 22. […] An average of 85 (range of 66-95) of these panelists evaluated between 4-6 varieties in a session. All panelists went through a training session to familiarize them with the scaling and procedures. Tomatoes were sliced into wedges (or in halves for grape/cherry types) and each panelist was given two pieces for evaluation. Panelists took a bite of each sample, chewed and swallowed it, and rated overall liking and liking for texture. They then rated the perceived intensities of sweetness, sourness, saltiness, umami sensation, bitterness and overall tomato flavor. They were free to take as many bites as necessary to complete the assessments. They were instructed to take a bite of an unsalted cracker and a sip of water between samples. Samples were presented to the panelists in a randomized order. Hedonic ratings used the hedonic gLMS. This scale assesses the liking for tomatoes in the context of all pleasure/displeasure experiences: 0=neutral, −100=strongest disliking of any kind experienced, and +100=strongest liking of any kind experienced. Sensory intensity ratings used the gLMS (7, 8, 19).This scale assesses taste and flavor sensations in the context of all sensory experience (7): 0=no sensation, 100=strongest sensation of any kind experienced. Both scales were devised to provide valid comparisons across subjects.
(§2) Statistical analysis. The 68 chemical compounds measured in this experiment were divided into six groups based upon biochemical properties: sugars, branched chain amino acids, lipids, carotenoids, phenolics, and acids. A small number of compounds for which biosynthetic pathways are not established were assigned to one of the six classes based upon their correlations with other classified compounds. All pairwise correlations among the set of 68 compounds were calculated. Correlation coefficients were sorted using Modulated Modularity Clustering (MMC) (9) as a visual aid for identifying compounds that are closely related in this sample (FIG. 1; Table 4). Biochemical groups were examined for compounds within the group that were highly correlated and compounds that were upstream in the relevant metabolic pathways were preferentially selected.
(§3) All analyses were performed in SAS v 9.2.

[2] = test system: perceived sweetness of tomato fruit (consumer panel); assay: Tomato consumer taste panel: perceived sweetness (gLMS) regressed on fruit chemical content; type: in vivo, human; conditions: for association with sweetness: univariate models; for t: multiple regression of volatile against perceived sweetness of tomato, independent of the measures of sugar
Procedure: as §1, §2, §3
In conducting the multiple regression analysis on the tomato data set, the independent variables were the sugar content (glucose+fructose), and the flavor (indicated by the retronasal perception of volatiles), while the dependent variable was the perceived sweetness.

[3] = test system: perceived sweetness of tomato fruit (consumer panel); conditions: analysis of a volatile subset (Tieman 2012); cited from earlier work
[4] = test system: texture liking of strawberry fruit (consumer panel); assay: Strawberry consumer panel: bivariate fit to texture liking; type: in vivo, human; conditions: bivariate linear fit; X = content of the substance in strawberry fruit, Y = Texture liking
Procedure: (§4) All consumer panels were approved by the University of Florida Institutional Review Board. […] Ages of panelist ranged from 18 to 71, with a median age of 24. Panelists self-classified themselves as 98 White or Caucasian, 11 Black or African-American, 1 Native American, Alaska Native or Aleutian, 41 Asian/Pacific Islander, and 15 Other. […] Fresh, fully-ripe strawberry fruit was removed from overnight 4° C. dark storage and allowed to warm to room temperature prior to sensory analysis. Each panelist was given one to two whole strawberries for evaluation, depending on cultivar availability. Panelist took a bite of each sample, chewed, and swallowed it. Ratings for overall liking and liking for texture were scaled on hedonic general labeled magnitude scale (gLMS) in the context of all pleasure/displeasure experiences. […] Scales were employed to mediate valid comparisons across subjects and sessions.
(§5) Bivariate analysis among individual measurements of samples allowed for linear fit, which includes summary of fit, analysis of variance, t-test, and correlation analysis for density ellipse. Two-way Ward hierarchical cluster analysis of all metabolite concentrations and strawberry samples accomplished in JMP.

[5] = test system: perceived sweetness intensity of strawberry fruit (consumer panel); assay: Strawberry consumer panel: multiple regression of volatile concentration against perceived sweetness intensity independent of glucose, fructose or sucrose; type: in vivo, human; conditions: for FRUCTOSE t RATIO: volatile concentration regressed against perceived sweetness intensity independent of fructose; for GLUCOSE t RATIO: volatile concentration regressed against perceived sweetness intensity independent of glucose; for SUCROSE t RATIO: volatile concentration regressed against perceived sweetness intensity independent of sucrose
Procedure: Step-wise multiple regressions of all volatile compounds against perceived intensity of sweetness is performed independent of either glucose, fructose, or sucrose concentration, separately (Table 6).
as §4
Multiple regressions were performed with the “enter” method in SPSS for identification of sweetness enhancing volatiles. Individual volatile compound concentrations were regressed using the “enter” method in SPSS Statistics (IBM Corp, Armonk, N.Y., USA).

[6] = test system: strawberry flavor intensity (consumer panel); assay: Strawberry consumer panel: bivariate fit to strawberry flavor intensity; type: in vivo, human; conditions: bivariate linear fit; X = content of the substance in strawberry fruit, Y = Flavor Intensity (FI)
Procedure: as §4, §5

C/C=C/C(=O)C1=C(C)C=CCC1(C)C [β-damascenone]
association with tomato flavor intensity [1]: not associated with tomato flavor intensity

COc1ccccc1O [guaiacol]
association with sweetness ([2]; tomato): showed evidence for association with sweetness in univariate models

CCC(C)OC(C)=O (centres unmarked) [sec-butyl acetate]
association with flavor intensity after accounting for fructose ([1]; listed as 2-butylacetate): independently significant after accounting for fructose

CCCCCCC=O [heptaldehyde]
association with sweetness ([2]; tomato): showed evidence for association with sweetness in univariate models

CC(C)=CCC/C(C)=C/C=O [geranial]
association with sweetness after accounting for fructose ([2]; tomato): independent predictors of sweetness after accounting for fructose
correlation with sweetness ([2]; tomato, direction of correlation): positively correlated with sweetness
contribution to perceived sweetness ([2]; tomato, multiple regression analysis using the volatiles): positive contributor to perceived sweetness
association with sweetness ([2]; tomato): showed evidence for association with sweetness in univariate models
enhancing sweetness intensity independent of fructose [3]: enhancing sweetness intensity independent of fructose
association with flavor intensity [1]: associated with flavor intensity in univariate models

CC(C)CCO [3-methyl-1-butanol]
association with sweetness after accounting for fructose ([2]; tomato): independent predictors of sweetness after accounting for fructose
association with sweetness ([2]; tomato): showed evidence for association with sweetness in univariate models
enhancing sweetness intensity independent of fructose [3]: enhancing sweetness intensity independent of fructose
association with flavor intensity after accounting for fructose ([1]; listed as 3-methyl-1-butenol): independently significant after accounting for fructose
association with flavor intensity [1]: associated with flavor intensity in univariate models

C=CC(=O)CCCCC [1-octen-3-one]
association with flavor intensity after accounting for fructose [1]: independently significant after accounting for fructose
association with flavor intensity [1]: associated with flavor intensity in univariate models

CCCCOC(C)=O [123-86-4, butyl acetate]
association with sweetness ([2]; tomato): showed evidence for association with sweetness in univariate models
association with flavor intensity [1]: associated with flavor intensity in univariate models

CCCCCCCCC=O [nonyl aldehyde]
t [2]: 1.148

C=CCc1ccc(O)c(OC)c1 [eugenol]
association with sweetness ([2]; tomato): showed evidence for association with sweetness in univariate models

CCCCC/C=C/C=C/C=O [trans,trans-2,4-decadienal]
association with flavor intensity after accounting for fructose [1]: independently significant after accounting for fructose
association with flavor intensity [1]: associated with flavor intensity in univariate models

O=CCc1ccccc1 [phenylacetaldehyde]
association with sweetness ([2]; tomato): showed evidence for association with sweetness in univariate models
association with flavor intensity [1]: associated with flavor intensity in univariate models
association with tomato flavor intensity [1]: not associated with tomato flavor intensity

c1ccc2scnc2c1 [benzothiazole]
association with flavor intensity [1]: associated with flavor intensity in univariate models

CC/C=C\CCO [cis-3-hexen-1-ol]
association with sweetness ([2]; tomato): showed evidence for association with sweetness in univariate models
association with flavor intensity after accounting for fructose [1]: independently significant after accounting for fructose
association with flavor intensity [1]: associated with flavor intensity in univariate models

CSCCC=O [methional]
association with sweetness ([2]; tomato): showed evidence for association with sweetness in univariate models
association with flavor intensity [1]: associated with flavor intensity in univariate models

CCC/C=C/C=O [6728-26-3, (2E)-2-hexenal or trans-2-hexenal]
Parameter Estimates-fit to Texture Liking: Estimate [4]: 0.000185
t [2]: 0.051
FRUCTOSE t RATIO [5]: 3.349
GLUCOSE t RATIO [5]: 3.314
SUCROSE t RATIO [5]: −0.816
Parameter Estimates: Estimate [6]: 0.0003625

CC1C=CC2C(C1)C2(C)C (centres unmarked) [4-carene]
association with sweetness ([2]; tomato): showed evidence for association with sweetness in univariate models

O=C(O)CC(O)(CC(=O)O)C(=O)O [citric acid]
association with flavor intensity after accounting for fructose [1]: independently significant after accounting for fructose
association with flavor intensity [1]: associated with flavor intensity in univariate models

O=C(CO)[C@@H](O)[C@H](O)[C@H](O)CO [fructose]
association with sweetness ([2]; tomato): showed evidence for association with sweetness in univariate models
association with flavor intensity [1]: associated with flavor intensity in univariate models

CCCCCCO [111-27-3]
Parameter Estimates-fit to Texture Liking: Estimate [4]: −0.01204
FRUCTOSE t RATIO [5]: −1.253
GLUCOSE t RATIO [5]: −1.481
SUCROSE t RATIO [5]: −0.542
Parameter Estimates: Estimate [6]: −0.001886

CC/C=C\CO [1576-95-0]
Parameter Estimates-fit to Texture Liking: Estimate [4]: 0.1369
FRUCTOSE t RATIO [5]: −0.186
GLUCOSE t RATIO [5]: −0.231
SUCROSE t RATIO [5]: −0.304
Parameter Estimates: Estimate [6]: −0.006042
